Experimental data: PMC4942611, “Promising Tools in Prostate Cancer Research: Selective Non-Steroidal Cytochrome P450 17A1 Inhibitors” (Scientific Reports, 2016)

Key:
[1] = molecular target: T1, CYP21A2 (Homo sapiens, UniProt P08686); assay: H295R cell assay, CYP21A2 activity; assay type: cell-based; settings: H295R cells
T1 sequence (P08686 1-495): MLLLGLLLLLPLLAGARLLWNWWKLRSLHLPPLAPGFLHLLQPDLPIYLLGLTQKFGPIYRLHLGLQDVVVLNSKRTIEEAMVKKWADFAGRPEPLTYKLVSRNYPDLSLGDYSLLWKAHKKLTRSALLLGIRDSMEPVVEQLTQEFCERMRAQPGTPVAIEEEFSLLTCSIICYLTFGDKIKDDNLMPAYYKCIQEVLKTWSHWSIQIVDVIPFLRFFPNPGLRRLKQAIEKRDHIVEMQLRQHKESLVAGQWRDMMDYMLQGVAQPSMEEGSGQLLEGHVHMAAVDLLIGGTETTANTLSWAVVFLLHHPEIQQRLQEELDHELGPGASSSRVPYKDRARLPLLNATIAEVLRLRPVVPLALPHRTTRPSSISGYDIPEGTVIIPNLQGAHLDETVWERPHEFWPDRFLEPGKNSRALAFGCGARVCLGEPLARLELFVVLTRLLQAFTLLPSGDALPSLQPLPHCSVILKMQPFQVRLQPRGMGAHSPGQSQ
Description: This cellular assay was also used to evaluate inhibitor selectivity.
The H295R steroid hormone synthesis assay was performed according to the OECD validation guideline. Cells were cultured in DMEM/F12 media supplemented with 1% ITS-premix and 2.5% Nu-serum at 37 °C with a 5% CO2 atmosphere. The cells were only used for experiments between passage […]. During exposure experiments, cells were grown in 24 well plates with a density of 3 × 10^5 cells/mL. […] To avoid interference from low levels of steroid hormones present in the Nu-serum, the exposure experiment was conducted with serum-free media. Each compound was tested at a minimum of seven concentration levels using three or more replicates and the experiment was repeated on two different days (n = 6–15). On each test plate a solvent control (SC) (medium with 0.1% DMSO) was included in triplicate and the maximal concentration of DMSO in the cell medium was 0.1%[49]. After 48 hours of incubation in presence of the test compounds, 950 μL of the medium was carefully removed and internal standards (50 μl of 0.1 μg/μl solution containing deuterated steroid analogues) were added. Samples were stored at −20 °C for later analysis.

[2] = molecular target: T2, human CYP17A1 (Homo sapiens, UniProt P05093); assay: Progesterone 17α-hydroxylase inhibition with purified CYP17A1; assay type: biochemical; settings: for IC50: conversion of PRO to 17-OH-PRO, 10 μM progesterone, mean over 3 measurements ± standard error
T2 construct: bearing a truncation of the N-terminal helix; made in house
T2 sequence (P05093 with tags, fused parts or gaps limits assumed): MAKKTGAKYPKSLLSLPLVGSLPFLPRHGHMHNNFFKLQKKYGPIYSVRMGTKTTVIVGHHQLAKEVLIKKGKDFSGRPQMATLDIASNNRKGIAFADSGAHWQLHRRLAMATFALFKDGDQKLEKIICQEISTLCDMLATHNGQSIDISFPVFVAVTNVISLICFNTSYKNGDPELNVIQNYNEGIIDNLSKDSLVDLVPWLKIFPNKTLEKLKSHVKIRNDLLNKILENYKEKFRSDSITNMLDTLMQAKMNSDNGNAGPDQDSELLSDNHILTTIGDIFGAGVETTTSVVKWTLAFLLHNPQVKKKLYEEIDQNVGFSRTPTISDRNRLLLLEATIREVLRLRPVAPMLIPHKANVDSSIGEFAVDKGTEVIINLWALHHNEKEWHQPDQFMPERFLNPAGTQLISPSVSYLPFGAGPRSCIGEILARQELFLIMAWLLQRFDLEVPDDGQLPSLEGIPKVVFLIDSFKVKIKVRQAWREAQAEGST
Description: (§1) Purified cytochrome P450 17A1 (50 nmol) was incubated with truncated human cytochrome P450 reductase[48] and rat cytochrome b5 in a 1:4:0 or 1:4:4 ratio for hydroxylase and 17,20-lyase reactions, respectively. […] Reactions were initiated upon addition of 25 mM NADPH as the electron source. The hydroxylated product was quantified after HPLC using an UV detector and analyzed as previously published. The 17,20-lyase assay was performed similarly substituting 1.2 μM of 17α-hydroxypregnenolone as the substrate and inhibitor concentrations of 0–500 nM. The dehydroepiandrosterone product was quantitated using a coupled GC/MS method.

[3] = molecular target: T2, human CYP17A1; assay: 17α-hydroxypregnenolone 17,20-lyase inhibition with purified CYP17A1; assay type: biochemical; settings: conversion of 17-OH-PRE into DHEA, 1.2 μM 17α-hydroxypregnenolone; mean over 3 measurements ± standard error
Description: as §1

Row | Compound | Inhibitor concentrations at which CYP21A2 is inhibited [1] | IC50 [2] [nM] | Potency for 17α-hydroxylase inhibition relative to abiraterone (times less potent) ([2]; recombinant human CYP17A1) | IC50 [3] [nM]
1 | Cc1ccc(-c2csc(-c3cccnc3)n2)c(C)c1 [Compound 1] | greater than 1000 nM | 230 ± 20 | 2–3 times | 500 ± 90
2 | CCCn1nnc2cc(-c3cc(-c4ccncc4)c(C#N)c(N)n3)ccc21 [Compound 2] | above 1000 nM | 130 ± 10 |  | 110 ± 20
3 | C[C@]12CC[C@H](O)CC1=CC[C@@H]1[C@@H]2CC[C@]2(C)C(c3cccnc3)=CC[C@@H]12 [abiraterone, reference compound] | 30 to 3000 nM | 92 ± 4 |  | 36 ± 2
